The record followed here is patent US12144823B2, “Porous silicate and/or aluminosilicate matrix/cerium oxide nanoparticle nanocarrier for combination anti-cancer therapeutic and antioxidant delivery” (Imam Abdulrahman Bin Faisal University, priority 2022, dated 2024).

Series [1] has as its system MCF-7 (Human Breast Cancer) cells. Kind of series: Cytotoxicity assay by MTT, MCF-7 cells. Type of series: cell-based. As to the method: (§1) MCF-7 (Human Breast Cancer) and HFF-1 (Human Foreskin Fibroblasts) cell lines were sub-cultured in DMEM (Dullbecco's Modified Eagle Medium) supplemented with 1% of L-Glutamine, 10% of Fetal Bovine Serum as FBS (Gibco), 1% of Non-Essential Amino Acid (Gibco), and 1% of penicillin and streptomycin. The cells were cultured in a humidified CO2 incubator at 37° C. (Thermoscientific, Waltham, MA). The cells were seeded for in a 96 well plate (Thermo Fisher, Waltham, USA) with 10,000 cells per well. […] The cells were tested after 24, 48 and 72 hours using (Thiazolyl Blue Tetrazolium Bromide, MOLEQULE-ON) MTT assay.
(§2) Cultured media along with NPs were removed from 96 well plates and the cells were washed with 1×PBS.
(§3) The statistical analysis was done for determining the MTT cytotoxicity assay, using an unpaired two-way ANOVA (GraphPad Prism software), P-value is set at <0.05 (* if P≤0.05, ** if P≤0.01, *** if P≤0.001, **** if P≤0.0001) were considered statistically significant. The results were calculated from different three experiments.
The cytotoxicity study was performed to evaluate the toxicity of CeO2 nanoparticles against breast cancer cell line (MCF-7) and a non-cancerous cell line of human foreskin fibroblast (HFF-1). Different concentrations were applied (see Table 1) for 24, 48 and 72 hours, then, cytotoxicity was measured by MTT assay after each period of treatment. The data were plotted in scattered graphs using excel to calculate the EC50 values from the exponential trendline generated equation. The statistical significance with the p value and standard deviation were analyzed by two-way ANOVA test in GraphPad, Prism software. […] In addition, EC50 values were calculated to estimate the half maximal cytotoxic effect after each time point.

Series [2] has as its system HFF-1 (Human Foreskin Fibroblasts) cells. The series is described as follows: Cytotoxicity assay by MTT, HFF-1 cells. Type of series: cell-based. As to the method:
as §1, §2, §3

The subject of series [3] is HFF-1 cells. Kind of series: Imaging of treated cells by light microscopy, HFF-1. As to conditions: 200 or 400 μg/mL, 48 h, light microscope. The series is classed as cell-based, Human. As to the method:
(§4) The cells were observed under the light microscope after each time point to evaluate the morphological changes and study the NPs effect on cell proliferation without fixation. The images were taken by light microscope (TS100F Eclipse, Nikon, Tokyo, Japan) that can work with a digital camera and combined with its Nikon microscope program.
(§5) The effect of nanocomposites on cell morphology was imaged by using a light microscope after each time point. MCF-7 cells and HFF-1 cells were treated with either 200 or 400 μg/mL for 48 h to evaluate the average morphological changes. […] In the microscopy images, the magnification was ×100 and the scale bar represents 100 μm.

Series [4] has as its system MCF-7 cells. The series is described as follows: Imaging of treated cells by light microscopy, MCF-7. The series is classed as cell-based, Human. The settings on record: 200 or 400 μg/mL, 48 h, light microscope. As for the experimental part: as §4, §5

Molecules are shown by their SMILES. Entries after “also recorded” stand apart in the source; their conditions may differ.

Turning to `N.N.[Cl][Pt][Cl]` [cisplatin], the “EC50 Value of treated MCF-7 cells, 24 h” value in series [1] (MCF-7, MTT, 24 h treatment) came out at 21.58 µg/mL. The “EC50 Value of treated MCF-7 cells, 48 h” value in series [1] (MCF-7, MTT, 48 h treatment) came to 8.03 µg/mL. For the same compound, in series [1] (MCF-7, MTT, 72 h treatment), the “EC50 Value of treated MCF-7 cells, 72 h” value came to 3.12 µg/mL. The “EC50 Value of treated HFF-1 cells, 24 h” value in series [2] (HFF-1, MTT, 24 h treatment) stood at 52.3 µg/mL. Besides, the “EC50 Value of treated HFF-1 cells, 48 h” value in series [2] (HFF-1, MTT, 48 h treatment) worked out at 12.62 µg/mL. Moreover, the “EC50 Value of treated HFF-1 cells, 72 h” value in series [2] (HFF-1, MTT, 72 h treatment) came to 6.58 µg/mL. For the same compound, in series [3], the “effect on cell morphology and proliferation, HFF-1” value is given as “cell death morphological structures”. Moreover, the “effect on cell morphology and proliferation, MCF-7” value in series [4] is reported as “cell death morphological structures”.
Consider `COc1cc(/C=C/C(=O)CC(=O)/C=C/c2ccc(O)c(OC)c2)ccc1O` [curcumin], for which, in series [1] (MTT, 24-72 h), the “cytotoxic efficacy against MCF-7 cells (in words)” value is “lowest efficacy with high cell viability percentages; also recorded: rapidly enhanced the cell growth”. Also, in series [2] (MTT, 24-72 h), the “cytotoxic efficacy against HFF-1 cells (in words)” value is reported as “less efficacy”. For the same compound, the “effect on cell morphology and proliferation, HFF-1” value in series [3] is recorded as “slightly affected”. Further, the “effect on cell morphology and proliferation, MCF-7” value in series [4] was “slightly affected”.
